Assay results taken from article PMC10787893, “Expression and characterization of the new antimicrobial peptide AP138L-arg26 anti Staphylococcus aureus” (Applied Microbiology and Biotechnology, 2024).
≈ marks a conversion by molar mass, not a printed value. Where two headings read alike, the source gives them in different places. Bridge positions count the residues as written; N and C are the ends. Peptide text beside a SMILES is read from it.

Tests used:
[1] = test system: S. aureus CVCC 546; settings: for FIC: FIC = MICc/MICa
Protocol: The synergistic effects of AP138L-arg26 with different antibiotics were evaluated using a checkerboard assay. The synergistic effect was calculated using the FICI as follows: FICI = FIC of AP138L-arg26 + FIC of antibiotic; FIC = MICc/MICa, where MICc is the MIC of the peptide and antibiotic in combination, and MICa is the MIC of the peptide/antibiotic alone (Blier et al. [2010]). Three parallel experiments were performed for each group. The efficacy of combination therapy was defined as FICI ≤ 0.5, 0.5 < FICI ≤ 1, 1 < FICI ≤ 4, and FICI > 4 indicating synergy, addition, no difference, and antagonism, respectively.

[2] = test system: selected standard and clinical Gram-positive bacteria; experiment: MIC/MBC summary over the panel of strains; assay type: cell-based, S. aureus, S. epidermidis, S. dysgalactiae, S. agalactiae
Protocol: To determine the MIC values of AP138L-arg26, we used the broth microdilution technique as previously described (Andrews. [2001]; Wiegand et al. [2008]). In brief, AP138L-arg26 peptide were diluted from 1280 to 2.5 µg/mL and added to a 96-cells plate with 10 µL per well. The bacteria in the logarithmic stage were diluted to 10^5 CFU/mL with 90 µL per well. […] The MBC method was also based on the CLSI 2021 guidelines.

[3] = test system: S. aureus CVCC 546; experiment: pH stability, MIC after treatment; assay type: physicochemical, Staphylococcus aureus
[4] = test system: S. aureus CVCC 546; experiment: Potassium ion (K+) leakage, ICP-MS; assay type: cell-based, Staphylococcus aureus
Description: The integrity effect of antimicrobial peptide AP138L-arg26 on bacterial cell membranes was further verified, and the K^+ leakage assay was previously described (Li et al. [2020]). Briefly, the main procedures were as follows: Firstly, prepare the S. aureus CVCC 546 bacteria suspension at a concentration of 1 × 10^8 CFU/mL. […] Finally, the supernatants were detected using inductively coupled plasma mass spectrometry (ICP-MS) (SantaClara, CA, USA).

[5] = test system: S. aureus CVCC 546; experiment: SYTO9/PI membrane integrity assay; assay type: cell-based, Staphylococcus aureus; settings: 2 × MIC, 37 °C, 1 h; 1 × 10^9 CFU/mL; fluorescence microscopy
Description: To explore the disruption of bacterial cell membranes by the AP138L-arg26, a SYTO9/PI kit was used to detect the integrity of cell membranes (L7007 LIVE/DEAD^R BacLight™ Bacerial Viability Kits). The unique feature of this kit is that SYTO9 alone can pass through integral cell membranes, while PI can only penetrate damaged cell membranes. […] Finally, the results were observed using fluorescence microscopy.

[6] = test system: mouse macrophages RAW264.7; experiment: Cytotoxicity, MTT method; assay type: cell-based; settings: 256 µg/mL; RAW264.7, MTT
Description: The cytotoxicity of AP138L-arg26 to mouse macrophages RAW264.7 was detected by the thiazolyl blue tetrazolium bromide (MTT) method as described previously (Shen et al. [2021]).

[7] = test system: S. aureus CVCC 546; experiment: Serum stability, MIC after treatment; assay type: in vitro ADME, Staphylococcus aureus; settings: then MIC
Description: Table 4 The stability of AMPs in different environments | column: MIC

[8] = test system: S. aureus CVCC 546; experiment: Intracellular ATP determination; assay type: cell-based, Staphylococcus aureus
Description: As ATP is the most direct source of energy for living organisms, the effect of antimicrobial peptides on ATP was explored with an ATP assay kit (Beyotime, Shanghai, China). […] The luminescence was detected using an Infinite M200 Microplate reader (Tecan, Luminescence signals).

[9] = test system: S. aureus CVCC 546; experiment: Artificial intestinal juice (trypsin) stability, MIC after treatment; assay type: in vitro ADME, Staphylococcus aureus; settings: then MIC assay
[10] = test system: ICR mice; experiment: Acute toxicity in mice; assay type: in vivo, mouse
Protocol: AP138L-arg26 was administrated by intraperitoneal injection (n = 4 per group, 10 mg/kg, body weight 25 g) every day for 1 week (Shi et al. [2022]). After 7 days, the mice were euthanized to collect anticoagulant whole-blood and tissues (liver, spleen, kidney, and lung), which were used for whole blood and biochemical detection, or tissue sections (hematoxylin-eosin (HE) staining), respectively.

[11] = test system: S. aureus CVCC 546; experiment: Thermal stability, MIC after treatment; assay type: physicochemical, Staphylococcus aureus
[12] = test system: S. aureus; experiment: Intracellular LDH activity; assay type: cell-based, Staphylococcus aureus; settings: 6 h, treated cells/the control, n = 3
Protocol: As disruption of the cell membrane structure leads to the release of LDH from the cytoplasm into the culture medium, the detection of LDH in bacteria can further reveal the antibacterial mechanism (Shi et al. [2022]). Briefly, S. aureus cells were co-incubated with AP138L-arg26 for 6 h. Later, the pellets were collected and sonicated (3 s/10 s, 30 times). The intracellular LDH activity was detected using an Infinite M200 Microplate reader (Tecan, Luminescence signals). The calculated results of LDH% = treated cells/the control.

[13] = test system: intracellular S. aureus CVCC 546 in mouse macrophages RAW264.7 and bovine endometrial epithelial cells BNCC359233; experiment: Intracellular antibacterial activity; assay type: cell-based, Staphylococcus aureus; settings: 5 × MIC; n = 3
Description: The method of intracellular bactericidal effect was described previously (Wang et al. [2018]). Only the number of cells and bacteria changed from 2.5 × 10^5 to 2 × 10^5 cells/mL.

CC[C@H](C)[C@@H]1NC(=O)[C@H](CO)NC(=O)[C@H](CCCCN)NC(=O)[C@@H]2CSSC[C@@H](C(=O)N[C@@H](Cc3ccc(O)cc3)C(=O)O)NC(=O)[C@H](CCCCN)NC(=O)[C@@H]3CSSC[C@H](NC(=O)[C@H](CCCNC(=N)N)NC(=O)[C@H](CC(C)C)NC(=O)[C@H](CC(=O)O)NC(=O)[C@H](CC(=O)O)NC(=O)[C@H](CCC(=O)O)NC(=O)[C@H](CO)NC(=O)[C@H](Cc4c[nH]c5ccccc45)NC(=O)[C@@H]4CCCN4C(=O)CNC(=O)[C@H](CC(N)=O)NC(=O)[C@@H](NC(=O)CNC(=O)[C@H](Cc4ccccc4)NC(=O)CN)CSSC[C@H](NC(=O)[C@H](Cc4ccc(O)cc4)NC(=O)CNC(=O)CNC(=O)[C@H](CCCNC(=N)N)NC(=O)[C@H](Cc4ccc(O)cc4)NC(=O)CNC(=O)[C@H](CCCCN)NC1=O)C(=O)N[C@@H](C)C(=O)N[C@@H](CCCCN)C(=O)NCC(=O)NCC(=O)N[C@@H](Cc1ccccc1)C(=O)N[C@@H](C(C)C)C(=O)N3)C(=O)N[C@@H](Cc1c[nH]cn1)C(=O)N[C@@H](CCCNC(=N)N)C(=O)N[C@@H](Cc1c[nH]cn1)C(=O)N2 [AP138L-arg26] (H-GFGCNGPWSEDDLRCHRHCKSIKGYRGGYCAKGGFVCKCY-OH; disulfide 4-30, 15-37, 19-39; N-terminus and C-terminus assumed)
FIC ([1]; combination AP138L-arg26-Streptomycin sulfate): 0.5
FIC ([1]; combination AP138L-arg26-ampicillin): 1
FIC ([1]; combination AP138L-arg26-ceftiofur sodium): 0.0625
MICa ([1]; MIC of peptide/antibiotic alone, three parallel experiments): 4 µg/mL
MICc ([1]; in combination AP138L-arg26-Streptomycin sulfate): 2 µg/mL
MICc ([1]; in combination AP138L-arg26-ampicillin): 4 µg/mL
MICc ([1]; in combination AP138L-arg26-ceftiofur sodium): 0.25 µg/mL
MIC against Streptococcus ([2]; Streptococcus strains): 4 µg/mL (≈ 0.898 µM)
MBC relative to MIC ([2]; over the strains of Table 2): around fourfold higher than MICs
MIC against S. aureus ([2]; range over S. aureus strains): 2 to 16 µg/mL
MIC against selected standard and clinical Gram-positive bacteria ([2]; range over all strains of Table 2): 2 to 16 µg/mL
MIC against selected standard and clinical Gram-positive bacteria ([2]; range over all strains, converted from µg/mL): 0.45 to 3.6 µM
antimicrobial activity after different pH values (2–10) ([3]; pH 2–10, 1 h, MIC assay): unaffected
MIC, pH 2 ([3]; peptide incubated at pH 2 for 1 h at 37 °C, then MIC assay): 8 µg/mL
MIC, pH 4 ([3]; peptide incubated at pH 4 for 1 h at 37 °C, then MIC assay): 16 µg/mL
MIC, pH 6 ([3]; peptide incubated at pH 6 for 1 h at 37 °C, then MIC assay): 16 µg/mL
MIC, pH 8 ([3]; peptide incubated at pH 8 for 1 h at 37 °C, then MIC assay): 8 µg/mL
MIC, pH 10 ([3]; peptide incubated at pH 10 for 1 h at 37 °C, then MIC assay): 16 µg/mL
extracellular K+ leakage level ([4]; 2 × MIC, 37 °C, 1 × 10^8 CFU/mL, ICP-MS, untreated 0.02 mg/L): 0.05 mg/L
intracellular potassium leakage relative to control ([4]; as given in the abstract): 2.5 fold
cells stained red by PI [5]: more than 50%
cell viability [6]: over 75%
MIC, 25% serum (0.5 h) ([7]; peptide in 25% serum for 0.5 h): 8 µg/mL (≈ 1.8 µM)
MIC, 25% serum (1 h) ([7]; peptide in 25% serum for 1 h): 16 µg/mL (≈ 3.59 µM)
MIC, 25% serum (2 h) ([7]; peptide in 25% serum for 2 h): 16 µg/mL (≈ 3.59 µM)
MIC, 25% serum (4 h) ([7]; peptide in 25% serum for 4 h): 8 µg/mL (≈ 1.8 µM)
MIC, 25% serum (6 h) ([7]; peptide in 25% serum for 6 h): 16 µg/mL (≈ 3.59 µM)
MIC, 25% serum (8 h) ([7]; peptide in 25% serum for 8 h): 8 µg/mL (≈ 1.8 µM)
MIC, 50% serum (0.5 h) ([7]; peptide in 50% serum for 0.5 h): 8 µg/mL (≈ 1.8 µM)
MIC, 50% serum (1 h) ([7]; peptide in 50% serum for 1 h): 8 µg/mL (≈ 1.8 µM)
MIC, 50% serum (2 h) ([7]; peptide in 50% serum for 2 h): 8 µg/mL (≈ 1.8 µM)
MIC, 50% serum (4 h) ([7]; peptide in 50% serum for 4 h): 8 µg/mL (≈ 1.8 µM)
MIC, 50% serum (6 h) ([7]; peptide in 50% serum for 6 h): 8 µg/mL (≈ 1.8 µM)
MIC, 50% serum (8 h) ([7]; peptide in 50% serum for 8 h): 8 µg/mL (≈ 1.8 µM)
intracellular ATP, times higher than the untreated group ([8]; 1 × MIC): 7.6 times
intracellular ATP, times higher than the untreated group ([8]; 2 × MIC): 8.2 times
intracellular ATP, times higher than the untreated group ([8]; 4 × MIC (maximum)): 8.5 times
MIC, Intestinal juice (0.25 h) ([9]; peptide in artificial intestinal juice for 0.25 h): > 64 µg/mL
MIC, Intestinal juice (0.5 h) ([9]; peptide in artificial intestinal juice for 0.5 h): > 64 µg/mL
MIC, Intestinal juice (1 h) ([9]; peptide in artificial intestinal juice for 1 h): > 64 µg/mL
MIC, Intestinal juice (2 h) ([9]; peptide in artificial intestinal juice for 2 h): > 64 µg/mL
histology (HE) of heart, kidney, spleen, lung and liver ([10]; 10 mg/kg i.p. daily for a week): no hyperemia, bleeding, hyperplasia, or other lesions
whole blood detection indexes and biochemical indexes compared with the control group ([10]; 10 mg/kg i.p. daily for a week): no significant differences
difference in biochemical index versus control ([10]; 10 mg/kg i.p. for 1 week): < 4%
difference in whole blood detection indexes versus control ([10]; 10 mg/kg i.p. for 1 week): < 4.5%
MIC, Heat (20 °C) ([11]; peptide incubated at 20 °C for 1 h, then MIC assay): 8 µg/mL (≈ 1.8 µM)
MIC, Heat (40 °C) ([11]; peptide incubated at 40 °C for 1 h, then MIC assay): 8 µg/mL (≈ 1.8 µM)
MIC, Heat (60 °C) ([11]; peptide incubated at 60 °C for 1 h, then MIC assay): 8 µg/mL (≈ 1.8 µM)
MIC, Heat (80 °C) ([11]; peptide incubated at 80 °C for 1 h, then MIC assay): 8 µg/mL (≈ 1.8 µM)
MIC, Heat (100 °C) ([11]; peptide incubated at 100 °C for 1 h, then MIC assay): > 64 µg/mL
MIC, Control (without treatment) ([11]; peptide without treatment, reference value of the stability tests): 8 µg/mL (≈ 1.8 µM)
LDH activity % ([12]; 1 × MIC): 24%
LDH activity % ([12]; 2 × MIC): 16%
LDH activity % ([12]; 4 × MIC): 16%
intracellular bacteria killed [13]: more than 70%
